SMILES strings stand for the structures. Calls of active or inactive are those of the source. How the calls were made is not given here.

One experiment has as its target Toxin B (TcdB) glycohydrolase, Clostridioides difficile 630. In words: TcdB glycohydrolase inhibitors, dose response, biochemical, cherry-pick, plate reader (AID 720512). The following applies: recombinant TcdB glycohydrolase activity.
As to `Cc1ccc(C)c2c1cc(C)c1nnc(SCC(=O)NCc3ccc4c(c3)OCO4)n12`, the AC50 is > 39 µM (inactive).
Same read-out and setting: as for `CC(C)NC(=O)N1CC[C@@H]2[C@@H](CO)N(C)c3ccc(-c4ccc(F)cc4)cc3[C@@H]21`, the figure is > 42 µM (inactive).
For the molecule `COc1ccc(C2(CNC(=O)c3ccc(OC)c([N+](=O)[O-])c3)CCCCC2)cc1OC`, the AC50 was > 39 µM (inactive).
The same measure, in the same setting: as for `CN(C)CCNC(=O)c1cc2c(s1)-c1ccc(Cl)cc1SC2`, the figure is > 39 µM (inactive); as for `C[C@H](CO)N1C[C@H](C)[C@@H](CN(C)C(=O)Nc2ccc(C(F)(F)F)cc2)Oc2c(NS(=O)(=O)c3ccccc3)cccc2C1=O`, > 39 µM (inactive).
Turning to `COc1cc(/C=C/C(=O)OCC(=O)NC(=O)NC(C)(C)C)ccc1O`, the AC50 was > 39 µM (inactive).
For `Nc1ccc2nc(-c3cccs3)[nH]c2c1`, the AC50 is > 39 µM (inactive).
In the case of `CCN(CC)CCCCN1c2ccccc2Sc2ccccc21`, the AC50 is > 39 µM (inactive).

Staying with this experiment, now noted: recombinant TcdB glycohydrolase activity, at 19.5 µM (top of the series).
Consider `O=C(O)c1cc(S(=O)(=O)Nc2ccc3cn[nH]c3c2)ccc1Cl`, for which the “activity change, negative = inhibition” value was “inactive”.
Same read-out and setting: in the case of `Cc1cc(C(=O)Nc2ncc(C)s2)c2ccccc2n1` it was “inactive”; in that of `CCN(C(=O)COC(=O)c1cccnc1SC)C1CCCCC1`, “inactive”.
Regarding `COc1cccc(C(=O)OCC(=O)Nc2cc(C)on2)c1OC`, the “activity change, negative = inhibition” value was “inactive”.
On to `CSc1nc2c(c(=O)[nH]c(=O)n2C)n1Cc1ccccc1`, for which the “activity change, negative = inhibition” value was “inactive”.
The same measure, in the same setting: as for `CCCCn1c(=S)[nH]c2c(=O)n(C)c(=O)n(C)c21`, the entry is “inactive”; as for `COc1ccccc1CNC(=O)CNC(=O)N1CC(=O)Nc2ccccc21`, “inactive”; as for `COc1cccc(Oc2ccc3nnc(C(F)(F)F)n3n2)c1`, “inactive”.
For the molecule `CN(C)c1ccc(/C=C/c2cccc[n+]2[O-])cc1`, the “activity change, negative = inhibition” value was “inactive”.
Still for that read-out and setting: as for `COC(=O)[C@@]12CCCCN1[C@H](c1ccc(-c3ccccc3)c(OC)c1)[C@H]1C(=O)N(C)C(=O)[C@H]12`, the entry is “inactive”.
Same read-out and setting: in the case of `CC(C)(C)N1C(=O)c2ccc(C(=O)Nc3ccc(O)cc3)cc2C1=O` it was “inactive”.
Same read-out and setting: in the case of `COC(=O)C[C@H]1CC[C@@H]2[C@@H](COc3ccc(NC(=O)c4cccc(OC)c4)cc3C(=O)N2C)O1` it was “inactive”; in that of `O=C(Nc1ccncc1)c1ccc(-c2ccccc2)cc1`, “inactive”.
Turning to `CC(=O)Oc1ccc2nc(/C=C/c3ccccc3)oc(=O)c2c1`, the “activity change, negative = inhibition” value was “inactive”.
As for `O=C(CNS(=O)(=O)c1ccccc1)N/N=C/c1ccc(O)cc1`, the “activity change, negative = inhibition” value was “inactive”.
On the same count and under the same terms, as for `Cc1ccc(CNC(=O)Nc2cccc(C)c2)cc1`, the entry is “inactive”; as for `O=C(Cn1cc(COc2ccc(Cl)c(Cl)c2)nn1)NS(=O)(=O)c1ccccc1OC(F)(F)F`, “inactive”.
Same read-out and setting: in the case of `Cc1ccc2sc(NNC(=O)C3COc4ccccc4O3)nc2c1C` (configuration not stated) it was “inactive”; in that of `Cc1cccc(/C=C/c2onc(C)c2S(=O)(=O)N2CCC(C(=O)NC(C)(C)C)CC2)c1`, “inactive”.
On the same count and under the same terms, in the case of `O=C(COC(=O)c1ccc(F)cc1F)c1ccc[nH]1` it was “inactive”.
On to `COc1ccccc1-n1c(SCC(=O)O)nc2c(sc(=S)n2-c2ccc(Cl)c(C)c2)c1=O`, for which the “activity change, negative = inhibition” value was “inactive”.
The same measure, in the same setting: as for `COc1ccc(/C=C2\CCC(C3CCCC3)C2=O)cc1` (configuration not stated), the entry is “inactive”; as for `O=C(Nc1ccc(O)cc1)c1ccc2c(c1)C(=O)N(Cc1ccco1)C2=O`, “inactive”; as for `Cc1c(-n2c(O)c(C3=c4ccccc4=NC3=O)sc2=S)c(=O)n(-c2ccccc2)n1C`, “inactive”.

Values taken from PubChem BioAssay AID720512 (Broad Institute, 2013).
